Experimental data reported in patent publication US9029542B2 (priority 2011, dated 2015).
Where “and” joins values, the source holds several entries; their conditions need not be identical. Equal values may be shown once. Read-outs that look alike come from different tables or passages of the source.

What was measured:
Radish = experiment: whole plant or invertebrate; type: in vivo; conditions: Raphanus sativus
Cucumber = experiment: whole plant or invertebrate; type: in vivo; conditions: Cucumis sativus
rape = experiment: animal or person; type: in vivo
Capsella bursa-pastoris = experiment: whole plant or invertebrate; type: in vivo; conditions: 600 h, read-out: weed clearing activity, Capsella bursa-pastoris Postemergence
Abutilon theophrasti = experiment: whole plant or invertebrate; type: in vivo; conditions: for pest or weed control at 150 g/ha: Abutilon theophrasti, 600 h, read-out: Postemergence weed clearing activity, Abutilon theophrasti
Eclipta prostrata = experiment: whole plant or invertebrate; type: in vivo; conditions: for pest or weed control at 150 g/ha: Eclipta prostrata, 600 h, read-out: weed clearing activity, Eclipta prostrata Postemergence; for Weed clearing activity, Eclipta prostrata, Postemergence: in vivo
Sorghum = experiment: whole plant or invertebrate; type: in vivo
Amaranthus retroflexus = experiment: whole plant or invertebrate; type: in vivo; conditions: for pest or weed control at 150 g/ha: Amaranthus retroflexus, 600 h, read-out: weed clearing activity, Amaranthus retroflexus Postemergence
cockspur grass = experiment: whole plant or invertebrate; type: in vivo; conditions: Echinochloa crus-galli
Wheat = experiment: whole plant or invertebrate; type: in vivo; conditions: Triticum aestivum
[1] = system: weeds of the expanded weed killing spectrum; conditions: in vivo
[2] = read-out: inhibitory activity, Radish Root
[3] = read-out: inhibitory activity, Radish Stem
[4] = read-out: inhibitory activity, Cucumber Root
[5] = read-out: inhibitory activity, Cucumber Stem
[6] = read-out: inhibitory activity, Rape Root
[7] = read-out: inhibitory activity, Rape Stem
[8] = read-out: inhibitory activity, Sorghum Root
[9] = read-out: inhibitory activity, Sorghum Stem
[10] = read-out: inhibitory activity, Cockspur grass Root
[11] = read-out: inhibitory activity, Cockspur grass Stem
[12] = read-out: inhibitory activity, Wheat Root
[13] = read-out: inhibitory activity, Wheat Stem

Row | SMILES | inhibition at 100 µg/mL (Radish; [2]) [%] | inhibition at 100 µg/mL (Radish; [3]) [%] | inhibition at 100 µg/mL (Cucumber; [4]) [%] | inhibition at 100 µg/mL (Cucumber; [5]) [%] | inhibition at 100 µg/mL (rape; [6]) [%] | inhibition at 100 µg/mL (rape; [7]) [%] | pest or weed control at 150 g/ha (Capsella bursa-pastoris) [%] | pest or weed control at 150 g/ha (Abutilon theophrasti) [%] | pest or weed control at 150 g/ha (Eclipta prostrata) [%] | inhibition at 100 µg/mL (Sorghum; [8]) [%] | inhibition at 100 µg/mL (Sorghum; [9]) [%] | pest or weed control at 150 g/ha (Amaranthus retroflexus) [%] | inhibition at 100 µg/mL (cockspur grass; [10]) [%] | inhibition at 100 µg/mL (cockspur grass; [11]) [%] | inhibition at 100 µg/mL (Wheat; [12]) [%] | inhibition at 100 µg/mL (Wheat; [13]) [%] | also measured
1 | CC(OC(=O)COc1cccc(C(F)(F)F)c1)P1(=O)OCC(C)(C)CO1 (stereo not drawn) [Compound 45, 2-(3-trifluormethylphenoxyethylacyloxy)(methyl)methyl-5,5-dimethyl-1,3,2-dioxaphosphorinan-2-one phosphonate] | 90 | 60 | 98 | 50 | 85 | 30 | 85 | 75 | 50 | 70 | 60 | 50 | 0 | 0 | 80 | 60 | 
2 | CC(Oc1ccc(Cl)cc1Cl)C(=O)OC(C)P1(=O)OCC(C)(C)CO1 (stereo not drawn) [Compound 39, 2-(2,4-dichlorophenoxyisopropylacyloxy)(methyl)methyl-5,5-dimethyl-1,3,2-dioxaphosphorinan-2-one phosphonate] | 100 | 30 | 80 | 30 | 100 | 40 | 80 | 70 | 60 | 70 | 60 | 70 | 0 | 0 | 60 | 60 | 
3 | CC(Oc1ccc(F)cc1)C(=O)OC(C)P1(=O)OCC(C)(C)CO1 (stereo not drawn) [Compound 44, 2-(4-fluorphenoxyisopropylacyloxy)(methyl)methyl-5,5-dimethyl-1,3,2-dioxaphosphorinan-2-one phosphonate] | 80 | 30 | 30 | 30 | 100 | 30 | 70 | 60 | 60 | 0 | 0 | 50 | 0 | 0 | 0 | 0 | 
4 | CC(OC(=O)COc1ccc(F)cc1Cl)P1(=O)OCC(C)(C)CO1 (stereo not drawn) [Compound 37, 2-(2-chloro-4-fluorphenoxyethylacyloxy)(methyl)methyl-5,5-dimethyl-1,3,2-dioxaphosphorinan-2-one phosphonate] | 90 | 30 | 60 | 30 | 100 | 100 | 95 | 90 | 85 | 0 | 0 | 90 | 0 | 0 | 60 | 30 | Activity of expanded weed killing spectrum, Alligator alternanthera [1]: 60%; Activity of expanded weed killing spectrum, Ammania [1]: 60%; Activity of expanded weed killing spectrum, Cabbage [1]: 70%; Activity of expanded weed killing spectrum, Cayenne pepper [1]: 60% and 75%; Activity of expanded weed killing spectrum, Cucumis sativus [1]: 60% and 70%; Activity of expanded weed killing spectrum, Eclipta prostrata [1]: 60%; Activity of expanded weed killing spectrum, Monochoria [1]: 50%; Activity of expanded weed killing spectrum, Rape [1]: 70% and 75%; Activity of expanded weed killing spectrum, Rumex acetosa [1]: 70% and 75%; Activity of expanded weed killing spectrum, Vicia cracca [1]: 70%; Weed clearing activity, Abutilon theophrasti, Postemergence (Abutilon theophrasti; in vivo): 70%; Weed clearing activity, Eclipta prostrata, Postemergence (Eclipta prostrata): 60% and 85%; Weed clearing activity, Amaranthus retroflexus, Postemergence (Amaranthus retroflexus; in vivo): 60%
5 | Cc1cc(OCC(=O)OC(C)P2(=O)OCC(C)(C)CO2)ccc1Cl (stereo not drawn) [Compound 32, 2-(3-methyl-4-chlorophenoxyethylacyloxy)(methyl)methyl-5,5-dimethyl-1,3,2-dioxaphosphorinan-2-one phosphonate] | 90 | 60 | 60 | 90 | 90 | 90 | 70 | 70 | 60 | 0 | 0 | 60 | 0 | 0 | 0 | 0 | 
6 | CC(Oc1ccc(F)cc1Cl)C(=O)OC(C)P1(=O)OCC(C)(C)CO1 (stereo not drawn) [Compound 41, 2-(2-chloro-4-fluorphenoxyisopropylacyloxy)(methyl)methyl-5,5-dimethyl-1,3,2-dioxaphosphorinan-2-one phosphonate] | 80 | 60 | 80 | 60 | 100 | 90 | 90 | 70 | 60 | 70 | 70 | 60 | 0 | 0 | 70 | 40 | Weed clearing activity, Eclipta prostrata, Postemergence (Eclipta prostrata): 60%
7 | CC(Oc1ccc(Cl)cc1)C(=O)OC(C)P1(=O)OCC(C)(C)CO1 (stereo not drawn) [Compound 38, 2-(4-chlorophenoxyisopropylacyloxy)(methyl)methyl-5,5-dimethyl-1,3,2-dioxaphosphorinan-2-one phosphonate] | 70 | 30 | 60 | 30 | 100 | 100 | 70 | 60 | 60 | 0 | 0 | 50 | 0 | 0 | 30 | 30 | 
